Assay results taken from patent US20250281560A1, “METHOD FOR PREVENTING AND/OR TREATING CANCER OR AUTOIMMUNE DISEASE WITH 3,4,2 Prime,3 Prime,4 Prime-PENTAHYDROXY-TRANS-CHALCONE” (priority 2024, published 2025).

Tests used:
[1] = molecular target: T1, human ornithine decarboxylase (ODC) (Homo sapiens, UniProt P11926); assay: Inhibition of the activity of human ornithine decarboxylase by continuous spectrophotometry; type: biochemical; details: isolated component, FIG. 9
T1 sequence (P11926 1-461): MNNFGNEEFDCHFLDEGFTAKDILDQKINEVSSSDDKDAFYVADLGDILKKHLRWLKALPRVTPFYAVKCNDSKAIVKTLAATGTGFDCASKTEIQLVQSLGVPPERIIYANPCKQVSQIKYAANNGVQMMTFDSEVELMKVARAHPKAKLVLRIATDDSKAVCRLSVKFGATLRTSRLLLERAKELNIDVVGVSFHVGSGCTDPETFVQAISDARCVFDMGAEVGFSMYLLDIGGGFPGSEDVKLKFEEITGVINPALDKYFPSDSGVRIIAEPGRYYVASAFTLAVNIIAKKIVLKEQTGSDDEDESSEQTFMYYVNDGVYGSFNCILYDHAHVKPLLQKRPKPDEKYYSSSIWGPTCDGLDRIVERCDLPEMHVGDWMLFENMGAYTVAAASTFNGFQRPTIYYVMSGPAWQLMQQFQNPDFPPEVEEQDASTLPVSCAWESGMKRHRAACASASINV
Description: In this example, inhibition of the activity of human ornithine decarboxylase (ODC) was tested by continuous spectrophotometry. The standard ODC spectrophotometric reaction composition contained 30 mM Tris-HCl (pH 7.8), 10 mM ornithine, and 0.2 mM pyridoxal 5′-phosphate (PLP), together with 12.5 mM phosphoenolpyruvate, 0.4 unit/mL […] of microbes, 4.1 unit/mL malate dehydrogenase (malate dehydrogenase of mammals), and 0.6 mM NADH analog, with the final volume being 0.5 mL. The test mixture was added with a predetermined amount of an Acacia confusa extract sample as an inhibitor and then added with an appropriate amount of ODC to start the reaction. Once the enzyme ODC was added into the reaction mixture, the decrease in absorbance at 405 nm was continuously tracked with Lambda 25 UV-visible spectrophotometer (PerkinElmer Life Sciences). By this test method, 1 mole of CO2 was generated under the test conditions, and 1 mole of NADH analog was oxidized. The unit of the enzyme ODC was defined as the amount of the enzyme that is required to catalyze the generation of 1 mole of NAD per minute. For the calculation, 2410 M^−1cm^−1 was used as the molar absorptivity of the NADH analog. […]

[2] = molecular target: human peptidylarginine deiminase 4 (PAD4) (Homo sapiens, UniProt Q9UM07); assay: Inhibition of the activity of human peptidylarginine deiminase 4 by continuous spectrophotometry; type: biochemical; details: human PAD4, isolated component, FIG. 10
Sequence of human peptidylarginine deiminase 4 (PAD4) (Q9UM07 whole entry): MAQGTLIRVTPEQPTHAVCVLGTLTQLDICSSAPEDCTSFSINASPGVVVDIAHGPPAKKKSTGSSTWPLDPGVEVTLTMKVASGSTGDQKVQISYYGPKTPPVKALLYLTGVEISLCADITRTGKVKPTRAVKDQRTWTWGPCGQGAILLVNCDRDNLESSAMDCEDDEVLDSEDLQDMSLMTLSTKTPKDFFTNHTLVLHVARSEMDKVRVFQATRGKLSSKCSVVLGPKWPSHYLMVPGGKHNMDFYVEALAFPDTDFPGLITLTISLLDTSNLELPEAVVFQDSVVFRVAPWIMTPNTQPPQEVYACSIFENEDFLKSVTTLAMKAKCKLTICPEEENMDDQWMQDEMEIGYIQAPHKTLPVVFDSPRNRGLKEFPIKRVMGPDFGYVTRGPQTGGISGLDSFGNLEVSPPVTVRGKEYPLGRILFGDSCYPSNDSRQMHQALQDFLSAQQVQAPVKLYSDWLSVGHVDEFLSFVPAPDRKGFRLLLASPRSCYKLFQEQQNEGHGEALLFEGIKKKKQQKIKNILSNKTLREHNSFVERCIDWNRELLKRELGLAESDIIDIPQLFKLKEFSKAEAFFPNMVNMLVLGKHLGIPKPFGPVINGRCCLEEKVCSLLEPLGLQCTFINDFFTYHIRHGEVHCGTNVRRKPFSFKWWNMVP
Description: In this example, inhibition of the activity of human peptidylarginine deiminase 4 (PAD4) was tested by continuous spectrophotometry. The standard PAD4 spectrophotometric reaction mixture contained 10 mM BAEE (benzoyl-L-arginine ethyl ester), 10 mM CaCl2), 2.5 mM dithiothreitol (DTT), 8.5 mM α-ketoglutarate (α-KG), 0.22 mM NADH, and 3 U glutamate dehydrogenase (GDH). 100 mM Tris-HCl (pH 7.5) was added into a 1-mL colorimetric tube, followed by a predetermined amount of an Acacia confusa extract sample as an inhibitor. The temperature was controlled at 37° C. An appropriate amount of PAD4 was then added into the test mixture to start the reaction. Once the enzyme PAD4 was added into the reaction mixture, the decrease in absorbance at 340 nm was continuously recorded with a spectrophotometer (Beckman DU 7500). The unit of the enzyme PAD4 was defined as the amount reduced in order to catalyze the conversion of 1 μmol of NADH to NAD^+ per minute. For the calculation of enzyme activity, 6220 M^−1cm^−1 was used as the molar absorptivity of the NADH.
Referring to the content of Example 3 to detect the inhibiting activity of peptidylarginine deiminase 4 (PAD4) of components of the Acacia confusa ethyl acetate extract: Melanoxetin, Okanin and Transilitin, the results are shown in FIG. 10.

Compound: O=C(/C=C/c1ccc(O)c(O)c1)c1ccc(O)c(O)c1O [Okanin, 3,4,2′,3′,4′-pentahydroxy-trans-chalcone]
- IC50 [1]: 8.2 ± 2.1 µM
- IC50 [2]: 89.2 ± 8.3 µM
